US20050136481A1, “Systems and methods for predicting the structure and function of multipass transmembrane proteins” (priority 2003, published 2005)

How the values were obtained:
[1] = molecular target: T1, rhodopsin (Bos taurus, UniProt P02699); conditions: experimental result, retinal ligand/protein complex, Okada et al., 2001; cited from earlier work
[2] = molecular target: T1, rhodopsin; conditions: Okada et al., 2001; cited from earlier work
[3] = molecular target: bovine rhodopsin (Bos taurus, UniProt P02699); experiment: HierDock binding energy calculation (Eq. 1) of retinal ligands docked into the rhodopsin structure; conditions: all-trans-retinal versus 11-cis-retinal, HierDock Eq. 1
Description: The negative of the molecular surface of the protein was used to define potential binding regions within the target protein over which the various ligand conformations are to be sampled. The void regions are mapped with spheres generated over the whole target protein using the Sphgen program in DOCK (see Kuntz laboratory at UCSF, San Francisco, Calif.).
To locate the most favorable ligand binding site(s), DOCK 4.0 (Ewing and Kuntz, 1997, incorporated herein by reference) can be used to generate a set of conformations for binding the ligand of interest (e.g. in the case of rhodopsin, 11-cis-retinal—a ligand known to bind to bovine rhodopsin) to each of the overlapping docking regions identified above. For this docking step, a bump filter of 10, a non-distance-dependent dielectric constant of 1.0, and a cutoff of 10 Å may be used for energy evaluation. These values may be adjusted according to specific target proteins. […]
The ligand/protein conformations from Step 5 are further energy-minimized with all atoms (protein, lipid, and ligand) movable using conjugate gradients. The structure with the binding energy calculated by Eq. 1 is selected as: BE1=Energy[ligand in protein complex]−Energy[free Ligand in solvent] […]
Here the energy of the ligand in water is calculated using DREIDING FF and analytical volume Generalized-Born continuum solvation (GBCS) method. […]

T1 sequence (P02699 whole entry): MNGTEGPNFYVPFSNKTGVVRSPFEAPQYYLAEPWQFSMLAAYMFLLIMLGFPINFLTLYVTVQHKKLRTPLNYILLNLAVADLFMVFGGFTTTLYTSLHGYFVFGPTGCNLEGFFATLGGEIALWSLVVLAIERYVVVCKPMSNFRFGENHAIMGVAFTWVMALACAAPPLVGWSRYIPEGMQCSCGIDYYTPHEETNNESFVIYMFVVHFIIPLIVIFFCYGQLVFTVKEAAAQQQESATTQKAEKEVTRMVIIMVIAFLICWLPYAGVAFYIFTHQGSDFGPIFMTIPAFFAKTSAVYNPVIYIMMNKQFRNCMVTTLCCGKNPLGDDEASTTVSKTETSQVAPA
Sequence of bovine rhodopsin (P02699 whole entry): as above

CC1=C(/C=C/C(C)=C/C=C/C(C)=C/C=O)C(C)(C)CCC1 [retinal]
energy stored upon isomerization in the protein [1]: 34.7 ± 2.2 kcal/mol

CC1=C(/C=C/C(C)=C/C=C/C(C)=C/C=O)C(C)(C)CCC1 [11-cis-retinal]
effect on G-protein signaling [2]: inverse agonist

CC1=C(/C=C/C(C)=C/C=C/C(C)=C/C=O)C(C)(C)CCC1 [all-trans-retinal]
difference in binding energy [3]: 32 kcal/mol
